Assay results as given in ChEMBL document CHEMBL3132785, “Design, synthesis and evaluation of N6-substituted 2-aminoadenosine-5-N-methylcarboxamides as A3 adenosine receptor agonists” (Medchemcomm, 2014).

Assays:
[1] = target: Adenosine receptors; A1 & A3 (Homo sapiens) (UniProt P30542+P0DMS8); assay: Selectivity ratio; ratio of pEC50 for human adenosine A1 receptor to pEC50 for human adenosine A3 receptor
[2] = target: T1, Adenosine receptor A1 (Homo sapiens, UniProt P30542); assay: Agonist activity at human adenosine A1 receptor expressed in FlpIn-CHO cells assessed as inhibition of forskolin-induced cAMP accumulation after 30 mins by fluorescence assay; assay type: functional, cell-based
T1 sequence (P30542 whole entry): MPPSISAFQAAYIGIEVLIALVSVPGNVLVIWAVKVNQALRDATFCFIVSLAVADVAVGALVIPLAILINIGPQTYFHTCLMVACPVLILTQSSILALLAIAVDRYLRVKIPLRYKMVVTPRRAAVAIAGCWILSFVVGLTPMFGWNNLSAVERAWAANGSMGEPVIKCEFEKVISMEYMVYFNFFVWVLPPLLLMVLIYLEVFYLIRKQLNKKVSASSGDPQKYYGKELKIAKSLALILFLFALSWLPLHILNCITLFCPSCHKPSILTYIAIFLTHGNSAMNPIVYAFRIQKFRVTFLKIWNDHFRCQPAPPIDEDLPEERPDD

[3] = target: T2, Adenosine receptor A2b (Homo sapiens, UniProt P29275); assay: Agonist activity at human adenosine A2B receptor expressed in FlpIn-CHO cells assessed as inhibition of forskolin-induced cAMP accumulation after 30 mins by fluorescence assay; assay type: functional, cell-based
T2 sequence (P29275 whole entry): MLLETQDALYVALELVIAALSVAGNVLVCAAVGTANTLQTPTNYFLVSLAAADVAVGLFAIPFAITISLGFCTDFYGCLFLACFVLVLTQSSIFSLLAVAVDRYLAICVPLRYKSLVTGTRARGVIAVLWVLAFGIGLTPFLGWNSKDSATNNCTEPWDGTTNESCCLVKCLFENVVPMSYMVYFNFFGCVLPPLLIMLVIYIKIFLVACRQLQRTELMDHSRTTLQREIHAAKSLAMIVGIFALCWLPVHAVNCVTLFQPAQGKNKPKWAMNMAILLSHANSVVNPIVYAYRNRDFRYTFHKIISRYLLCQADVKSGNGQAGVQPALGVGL

[4] = target: T3, Adenosine receptor A3 (Homo sapiens, UniProt P0DMS8); assay: Agonist activity at human adenosine A3 receptor expressed in FlpIn-CHO cells assessed as inhibition of forskolin-induced cAMP accumulation after 30 mins by fluorescence assay; assay type: functional, cell-based
T3 sequence (P0DMS8 whole entry): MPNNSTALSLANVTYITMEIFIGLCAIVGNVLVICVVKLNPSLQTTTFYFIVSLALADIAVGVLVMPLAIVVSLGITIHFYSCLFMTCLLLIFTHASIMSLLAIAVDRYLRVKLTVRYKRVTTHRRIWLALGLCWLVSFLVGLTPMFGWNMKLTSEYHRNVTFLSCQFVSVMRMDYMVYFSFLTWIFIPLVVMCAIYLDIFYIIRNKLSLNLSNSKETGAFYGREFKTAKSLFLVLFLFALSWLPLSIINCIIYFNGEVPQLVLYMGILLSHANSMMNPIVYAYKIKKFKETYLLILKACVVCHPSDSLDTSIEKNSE

[5] = species on record: Homo sapiens; assay: Selectivity ratio; ratio of pEC50 for human adenosine A2B receptor to pEC50 for human adenosine A3 receptor
[6] = target: Adenosine receptor A2a (Homo sapiens, UniProt P29274); assay: Agonist activity at human adenosine A2A receptor expressed in FlpIn-CHO cells assessed as inhibition of forskolin-induced cAMP accumulation after 30 mins by fluorescence assay; assay type: functional, cell-based
Chain of Adenosine receptor A2a (P29274 whole entry): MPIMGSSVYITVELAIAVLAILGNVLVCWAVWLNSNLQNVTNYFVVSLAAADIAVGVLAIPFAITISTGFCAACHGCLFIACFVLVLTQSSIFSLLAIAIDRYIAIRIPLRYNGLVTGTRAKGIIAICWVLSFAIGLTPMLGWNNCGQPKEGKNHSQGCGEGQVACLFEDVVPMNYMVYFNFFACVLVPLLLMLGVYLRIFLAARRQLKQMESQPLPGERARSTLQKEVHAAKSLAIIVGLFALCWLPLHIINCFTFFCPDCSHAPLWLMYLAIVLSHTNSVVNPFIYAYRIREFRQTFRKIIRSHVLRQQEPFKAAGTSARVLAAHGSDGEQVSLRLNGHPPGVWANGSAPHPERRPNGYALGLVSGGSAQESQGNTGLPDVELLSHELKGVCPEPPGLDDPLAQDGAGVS

[7] = species on record: Homo sapiens; assay: Selectivity ratio; ratio of pEC50 for human adenosine A2A receptor to pEC50 for human adenosine A3 receptor

Row | Structure (SMILES) | Selectivity ratio [1] | EC50 [2] [nM] | EC50 [3] [nM] | EC50 [4] [nM] | Selectivity ratio [5] | EC50 [6] [nM] | Selectivity ratio [7]
1 | CNC(=O)[C@H]1O[C@@H](n2cnc3c(NCc4cccc(I)c4)nc(N)nc32)[C@H](O)[C@@H]1O | 158 | 251 | 158 | 1.58 | 100 | 251 | 158
2 | CNC(=O)[C@H]1O[C@@H](n2cnc3c(NCCc4ccccc4)nc(N)nc32)[C@H](O)[C@@H]1O | 79 | 316 | 158 | 3.98 | 40 | 79.4 | 20
3 | CNC(=O)[C@H]1O[C@@H](n2cnc3c(NCc4cccc(Cl)c4)nc(N)nc32)[C@H](O)[C@@H]1O | 501 | 316 | 398 | 0.631 | 631 | 398 | 631
4 | CNC(=O)[C@H]1O[C@@H](n2cnc3c(NC4CCC4)nc(N)nc32)[C@H](O)[C@@H]1O | 13 | 63.1 | 200 | 5.01 | 40 | 2510 | 501
5 | CNC(=O)[C@H]1O[C@@H](n2cnc3c(NC)nc(N)nc32)[C@H](O)[C@@H]1O | 794 | 3980 | 1580 | 5.01 | 316 | > 10000 | > 2000
6 | CNC(=O)[C@H]1O[C@@H](n2cnc3c(NCc4cccc(I)c4)ncnc32)[C@H](O)[C@@H]1O [IB-MECA] |  |  | 31.6 |  |  |  | 
7 | CNC(=O)[C@H]1O[C@@H](n2cnc3c(NC4CCCC4)nc(N(C)C)nc32)[C@H](O)[C@@H]1O | > 16 | > 10000 | > 10000 | 631 | > 16 | 5010 | 8
8 | CNC(=O)[C@H]1O[C@@H](n2cnc3c(NC4CCCCC4)nc(N)nc32)[C@H](O)[C@@H]1O | 1 | 63.1 | 2510 | 126 | 20 | 794 | 6
9 | CCCCNc1nc(N)nc2c1ncn2[C@@H]1O[C@H](C(=O)NC)[C@@H](O)[C@H]1O | 20 | 794 | 1260 | 39.8 | 32 | > 10000 | > 251
10 | CNC(=O)[C@H]1O[C@@H](n2cnc3c(NCC(c4ccccc4)c4ccccc4)nc(N)nc32)[C@H](O)[C@@H]1O | 79 | 398 | 200 | 5.01 | 40 | 794 | 158
11 | CCNc1nc(NC2CCCC2)c2ncn([C@@H]3O[C@H](C(=O)NC)[C@@H](O)[C@H]3O)c2n1 | 8 | 501 | > 10000 | 39.8 | > 251 | 501 | 8
12 | CNC(=O)[C@H]1O[C@@H](n2cnc3c(NC4CCCC4)nc(N)nc32)[C@H](O)[C@@H]1O | 3 | 39.8 | 794 | 15.8 | 50 | 1260 | 79
13 | CCN(CC)c1nc(NC2CCCC2)c2ncn([C@@H]3O[C@H](C(=O)NC)[C@@H](O)[C@H]3O)c2n1 | > 4 | > 10000 | > 10000 | 2510 | > 4 | > 10000 | > 4
14 | CNC(=O)[C@H]1O[C@@H](n2cnc3c(NC4CCCC4)nc(NC)nc32)[C@H](O)[C@@H]1O | 4 | 398 | > 10000 | 100 | > 100 | 3980 | 40
15 | CCNc1nc(N)nc2c1ncn2[C@@H]1O[C@H](C(=O)NC)[C@@H](O)[C@H]1O | 251 | 2510 | 1580 | 10 | 158 | > 10000 | > 1000
16 | CCCNc1nc(N)nc2c1ncn2[C@@H]1O[C@H](C(=O)NC)[C@@H](O)[C@H]1O | 32 | 316 | 5010 | 10 | 501 | > 10000 | > 1000
17 | CNC(=O)[C@H]1O[C@@H](n2cnc3c(NCc4ccccc4)nc(N)nc32)[C@H](O)[C@@H]1O | 200 | 6310 | 126 | 31.6 | 4 | 3160 | 100
